Where two headings read alike, the source gives them in different places.
Columns and labels:
[1] = tested on: wild type C57BI/6J control mice; conditions: for change in HDL-C compared with untreated WT mice: 1% niacin in diet
Excerpt: (§1) Materials: The mice used in these studies were pathogen-free C57BI/6J mice of the following genotypes: (1) wild type; (2) hemizygous human CETP-transgenic (hCETP-tg); (3) hemizygous human apoB100-transgenic, and 4) hemizygous human CETP and apoB100 dual-transgenic mice. The transgenic mice were purchased from Taconic Laboratories, Germantown, N.Y., where they were generated by introduction of genomic DNA fragments that drive expression of human CETP and/or apoB100 in the mouse liver (8-10).
(§2) Methods: Male mice (hCETP-tg and wild type C57BI/6J control mice; ˜10 weeks of age; 5-7/group) were used in this study. The mice were fed a normal rodent chow diet (Purina 7012) along with varying levels of niacin (milled with diet, expressed as % by weight of diet). They were housed with normal lighting and were allowed access to food and water ad lib. Blood samples were obtained by retro-orbital plexus at one, two and three weeks of treatment. After the fourth week of treatment, the mice were fasted for four hours and then euthanized. After euthanization, blood samples were collected by cardiac puncture. Serum lipids (total cholesterol, HDL-cholesterol, TG and FFA, and lipoprotein profiles) were determined. Serum samples from four weeks of treatment were also measured for CETP enzyme activity.

[2] = tested on: hemizygous human CETP-transgenic (hCETP-tg) mice; assay: Example 1: four-week niacin-in-diet study, serum lipids, hCETP-tg mice; format: in vivo, mouse; conditions: for change in HDL-C compared with untreated h-CETP-tg mice: 1% niacin in diet
Excerpt: as §1, §2

[3] = tested on: hCETP-tg mice; conditions: for increase of HDL-C / reduction of TG: 1% niacin in diet
Excerpt: as §2
Blood samples were obtained by retro-orbital plexus after one week of treatment, as in Example 1. After two weeks of treatment, the mice were fasted for four hours and then euthanized. Blood samples were collected by cardiac puncture. Serum lipids (total cholesterol, HDL-cholesterol, total triglyceride and FFA) were determined.

[4] = tested on: human ApoB 100 transgenic mice; conditions: experiments similar to Examples 1 and 2
Excerpt: as §1

[5] = tested on: hemizygous human-CETP/ApoB100 dual transgenic mice
Excerpt: Methods: This example is a study of the lipid modulating effect of niacin in human CETP and Apo-B100 dual transgenic mice. These mice have a more human-like lipoprotein profile than WT mice, with a lower HDUnon-HDL-C ratio.
Mice (hemizygous human-CETP/ApoB100 dual transgenic mice, ˜10 weeks of age, 7-8/group) were fed a normal rodent chow diet (Purina 7012) along with varying levels of niacin (milled with the feed). They were housed with normal lighting and were allowed access to food and water ad lib. Blood samples were obtained by retro-orbital plexus after one week of treatment. After two weeks of treatment, the mice were fasted for four hours and then euthanized. Blood samples were collected by cardiac puncture. Serum lipids (total cholesterol, HDL-cholesterol, TG and FFA, and lipoprotein profiles) were determined.

[6] = tested on: human-CETP/human-apoA1 dual-transgenic mice; conditions: 1% niacin in diet, one week
Excerpt: In addition, hemizygous human-CETP/human-apolipoprotein A1 dual-transgenic mice were generated by cross-breeding homozygous human-CETP transgenic male mice, purchased from Taconic, with homozygous human-apolipoprotein A1 transgenic female mice, purchased from Jackson Laboratories.
Methods: Mice used in this study express both human CETP and human apolipoprotein A1 genes. The mice were generated by cross-breeding homozygous human-CETP transgenic male mice with homozygous female human-apolipoprotein A1-transgenic mice. Female mice (˜10 weeks of age, 10/group) were fed a normal rodent chow diet (Purina 7012) with or without 1% niacin (milled with the feed). They were housed with normal lighting and were allowed access to food and water ad lib. After seven days of treatment, the mice were fasted for four hours and then euthanized. Blood samples were collected by cardiac puncture. Serum lipids (total cholesterol, HDL-cholesterol, TG and FFA, and lipoprotein profiles) were determined.

[7] = hCETP-tg mice, niacin in diet, appears dose-dependent
[8] = lipoprotein profiles by size exclusion chromatography
[9] = one week of treatment with niacin in diet
[10] = size exclusion chromatography, after two weeks of treatment

O=C(O)c1cccnc1 [niacin, nicotinic acid]
change in HDL-C compared with untreated WT mice ([1]; 1 week): −9%
change in HDL-C compared with untreated WT mice ([1]; 2 weeks): −17%
change in HDL-C compared with untreated WT mice ([1]; 3 weeks): −13%
change in HDL-C compared with untreated WT mice ([1]; 4 weeks): −7%
serum lipids, including TG, total cholesterol, HDL-C, non-HDL-C, and FFA ([1]; wild-type control mice, niacin in diet): broad reduction
change in HDL-C compared with untreated h-CETP-tg mice ([2]; 1 week): +40%
change in HDL-C compared with untreated h-CETP-tg mice ([2]; 2 weeks): +38%
change in HDL-C compared with untreated h-CETP-tg mice ([2]; 3 weeks): +37%
change in HDL-C compared with untreated h-CETP-tg mice ([2]; 4 weeks): +23%
FFA [2, 7]: reduction
HDL-cholesterol [2, 7]: increase
TG [2, 7]: reduction
non-HDL cholesterol [2, 7]: reduction
TG in the VLDL fractions [2, 8]: decline
cholesterol in the HDL fractions [2, 8]: rise
increase of HDL-C ([3]; one week of treatment): 35%
reduction of TG ([3]; one week of treatment): 44%
increase of HDL-C ([3]; two weeks of treatment): 37%
reduction of TG ([3]; two weeks of treatment): 45%
HDL particle size [3, 8]: without significant change
TG contents of VLDL, LDL and HDL particles [3, 8]: all reduced
cholesterol content in the HDL particles [3, 8]: increase
cholesterol content of the LDL and VLDL particles [3, 8]: reduced
level of HDL-C [4]: does not raise
increase in HDL-C ([5]; 0.1% niacin in diet, two weeks): 41%
decrease in HDL-C ([5]; 0.3% niacin in diet, two weeks): 5%
increase in HDL-C ([5]; 1% niacin in diet, two weeks): 15%
TC and TG [5, 9]: decrease
amount of HDL-C [5, 9]: without a significant change
TG in the VLDL and LDL fractions [5, 10]: decrease
cholesterol in the HDL fractions [5, 10]: increase
cholesterol in the LDL fractions [5, 10]: decrease
elevation of HDL-C ([6]; female mice): ~38%
reduction of TG ([6]; female mice): 53%
reduction of non-HDL-C ([6]; female mice): 39%
Non-HDL-C ([6]; male mice): did not change significantly
elevation of HDL-C ([6]; male mice): 27%
reduction of TG ([6]; male mice): 36%

— patent US20050251869A1, “Animal model for raising HDL-cholesterol with niacin” (priority 2004, published 2005)
